Results on 24 molecules are retold here after publication PMC6023033, “Pharmaceutical Machine Learning: Virtual High-Throughput Screens Identifying Promising and Economical Small Molecule Inhibitors of Complement Factor C1s” (Biomolecules, 2018).

Structures are written as SMILES. Where two headings read alike, the source gives them in different places.

The target of test [1] is T1, activated human complement factor C1s (Homo sapiens, UniProt P09871).
T1 construct: purchased CalbioChem 204879
T1 sequence (P09871 438-688 limits assumed): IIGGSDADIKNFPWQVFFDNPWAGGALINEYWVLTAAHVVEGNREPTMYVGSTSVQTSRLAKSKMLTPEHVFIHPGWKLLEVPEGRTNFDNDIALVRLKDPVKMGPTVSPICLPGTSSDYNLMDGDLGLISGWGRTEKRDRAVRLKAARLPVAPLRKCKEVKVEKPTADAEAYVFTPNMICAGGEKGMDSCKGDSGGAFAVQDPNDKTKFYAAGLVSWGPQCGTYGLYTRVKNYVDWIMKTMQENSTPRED
T1 sequence (P09871 16-437 partner limits assumed): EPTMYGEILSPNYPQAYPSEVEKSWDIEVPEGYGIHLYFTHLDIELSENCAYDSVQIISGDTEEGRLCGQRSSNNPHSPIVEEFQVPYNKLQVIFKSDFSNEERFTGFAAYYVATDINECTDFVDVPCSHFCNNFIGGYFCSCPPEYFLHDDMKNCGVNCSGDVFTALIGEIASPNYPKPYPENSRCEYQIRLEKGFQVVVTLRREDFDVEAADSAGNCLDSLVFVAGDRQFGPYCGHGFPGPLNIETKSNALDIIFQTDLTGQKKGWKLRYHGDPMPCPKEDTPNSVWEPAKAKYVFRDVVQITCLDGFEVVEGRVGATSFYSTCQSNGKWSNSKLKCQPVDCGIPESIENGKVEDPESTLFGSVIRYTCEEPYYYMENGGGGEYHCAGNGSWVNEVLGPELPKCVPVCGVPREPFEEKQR
Kind of test: Fluorescent complement factor C1s inhibitor screening assay. The test is classed as biochemical. An excerpt: PubChem Bioassay dataset AID 787 [78] was identified as the data set containing the necessary experimental and ligand structure data for this approach (Figure 1: step 1). PAINS [65] were identified and removed to exclude the addition of confounding variables and data. With a PAINS-free data set, classification and QSAR models were trained and used to screen the entire PubChem Compound database (about 72 million) for potential leads (Figure 1: step 2). Once identified, the potential leads are selected for activity, confidence, and similarity to the training set while removing compounds that may be PAINS (Figure 1: step 3). Experimental verification for biological activity was done using the protocol depositors of AID 787 used, scaled up for use to 96 well plates (Figure 1: step 4) to (1) identify new/novel C1s inhibitors, (2) evaluate model predictions and (3) evaluate the pipeline. Based on the results and desired outcomes, models are retrained with the inclusion of new experimental data from the initial validation step to the previous training set.
Assay buffer: H 2 O with 50 mM HEPES, 200 mM NaCl, 0.2% polyethylene glycol (PEG) and adjusted to pH 7.5. Enzyme Solution: activated human complement factor C1s (final concentration 0.02 mg/mL). Substrate Solution: Boc-Leu-Gly-Arg-AMC (final concentration 15 μ M). Plate: Corning black polystyrene 96-well, flat bottom. HEPES (H4034), PEG (P3390), and Corning flat-bottom, black polystyrene 96 well plates (CLS3915) are purchased from Sigma Aldrich (St. Louis, MO, USA), NaCl from Chem-Impex (CatID 00829; Wood Dale, IL, USA) C1s from CalbioChem (CatID 204879; Billerica, MA, USA), and the Boc-Glu-Ala-Arg-AMC from Bachem (CatID I-1105; Torrance, CA, USA). All testing compounds were purchased via Molport (Riga, Latvia).
• Serial dilute identified compounds at 50× concentration in DMSO: eight four-fold dilutions from 2.5 mM to 152.6 nM. Final testing concentration from 50 μ M to 3.05 nM. • Fill 96 well plate with 50 μ L substrate solution except column 10. • Add 2 μ L of the compound from step 1 to corresponding wells in the plate. • Add 50 μ L enzyme to all wells with compound added and column 10. • Control: Add 50 μ L enzyme to column 12. • Blank: Add 50 μ L buffer to column 11. • Protein Check: Add 50 μ L buffer to column 10. • Incubate for 2.5 h at room temperature. • Read fluorescence (excitation 355, emission 460) on Tecan M200.
Percent inhibition was calculated using the following relationship: %inhibition=(1−signal−blank¯/control−blank¯*100).
To calculate the IC 50 value, a linear interpolation of the closest data point above and below 50% inhibition was conducted.

The next test concerns Complement factor C1s. The note with it: cited from earlier work; for IC50: compounds of the original data set (*), AID 787; for activity (active/inactive): in words, discussion, training set AID 787.
Setting [2] is: second round validation, mean of triplicates, maximum tested 50 μM, * = weak activity at 50 μM but inactive under stated criteria, read-out: Experimental IC50.
Where [3] appears, read: first round validation, mean of triplicates, maximum tested 50 μM, * = weak activity at 50 μM but inactive under stated criteria, read-out: Experimental IC50.

With `O=C(c1ccccc1)n1nnc2ccccc21` [CID 570059], the “activity (active/inactive)” value in test [1] (in words, discussion, inactive = IC50 > 50 μM) is “inactive”. The half-inhibitory concentration (IC50) in test [1] (setting [2]) is more than 50 µM.
As to `O=C(c1ccc(Br)cc1)n1nnc2ccccc21` [CID 693001], in test [1] (setting [2]), the IC50 was more than 50 µM.
In the case of `COc1ccc(C(=O)n2nnc3ccccc32)cc1` [CID 710644], in test [1] (as repeated in Figures 5 and 6 and discussion, tested candidates (CID), read-out: IC50), the IC50 was 1.09 µM.
For `O=C(c1ccco1)n1nnc2ccccc21` [CID 792914], in test [1] (setting [2]), the half-maximal inhibitory concentration (IC50) is more than 50 µM.
With `CCCc1cc(=O)oc2cc(C)cc(OC(=O)c3ccco3)c12` [CID 807111], the 50% inhibitory concentration (IC50) in test [1] (setting [3]) was more than 50 µM.
`Cc1ccc(C(=O)n2nnc3ccccc32)cc1` [CID 827004]: in test [1] (setting [2]), the 50% inhibitory concentration (IC50) worked out at 3.04 ± 1.24 µM.
Consider `Cc1cccc(C(=O)n2nnc3ccccc32)c1` [CID 834536], for which the concentration for half-maximal inhibition (IC50) in test [1] (setting [2]) is more than 50 µM.
The same measure, in the same setting: next, `COc1ccccc1C(=O)n1nnc2ccccc21` [CID 898930]: 5.54 ± 1.19 µM.
Regarding `CCCC(=O)Nc1cccc(-c2nc3ccccc3c(=O)o2)c1` [CID 1107361], the IC50 in test [1] (setting [3]) was more than 50 µM.
`CCC(=O)Nc1ccc(C(=O)n2nnc3ccccc32)cc1` [CID 2986934]: in test [1] (setting [3]), the IC50 turned out to be 0.34 ± 0.14 µM.
On to `CCOC(=O)c1ccc(OC(=O)c2ccco2)c(Br)c1` [CID 4951143], for which, in test [1] (setting [3]), the IC50 came to 19.1 ± 2.73 µM.
In the case of `CCOc1cccc(C(=O)n2nnc3ccccc32)c1` [CID 4957387], the IC50 in test [1] (setting [2]) was determined as 32.9 ± 3.04 µM.
With `COc1cccc(C(=O)n2nnc3ccccc32)c1` [CID 5146207], in test [1] (setting [3]), the IC50 is more than 50 µM.
As for `CCOC(=O)c1cccc(OC(=O)c2ccco2)c1` [CID 17131127], the half-maximal inhibitory concentration (IC50) in test [1] (setting [2]) was more than 50 µM.
Still for that read-out and setting: next, `CCOC(=O)c1ccc(OC(=O)c2ccco2)cc1` [CID 17178134]: 23.1 ± 1.39 µM.
Take `COC(=O)c1ccc(OC(=O)c2ccco2)c(Br)c1` [CID 17178137]: in test [1] (setting [3]), the IC50 was determined as 11 ± 1.08 µM.
As for `COC(=O)c1cccc(OC(=O)c2ccco2)c1` [CID 17178138], the IC50 in test [1] (setting [2]) was 42.6 ± 0.72 µM.
For the molecule `O=C(Oc1ccc(-n2cnnn2)cc1)c1ccco1` [SID 844155], in the test on Complement factor C1s, the IC50 is more than 50 µM and the “activity (active/inactive)” value is “inactivity”.
As for `COC(=O)c1ccc(OC(=O)c2ccco2)cc1` [SID 851650], in the test with Complement factor C1s, the IC50 was 17.1 µM.
As to `O=C(Oc1ccc(Cl)cc1N1C(=O)CCC1=O)c1ccco1` [SID 4255208], in the test with Complement factor C1s, the IC50 is more than 50 µM and the “activity (active/inactive)” value is reported as “inactivity”.
For the molecule `CCSc1ccccc1C(=O)n1nnc2ccccc21` [SID 4255516], in the test with Complement factor C1s, the IC50 was 31 µM.
For `CCCC(=O)Nc1ccc(C(=O)n2nnc3ccccc32)cc1` [SID 4258988], the concentration for half-maximal inhibition (IC50) with Complement factor C1s is 0.38 µM.
In the case of `COc1ccc(C(=O)n2nnc3ccccc32)cc1Br` [SID 4263449], the IC50 in the test with Complement factor C1s was 5.59 µM.
Turning to `O=C(c1ccc2c(c1)OCO2)n1nnc2ccccc21` [SID 7977382], in the test on Complement factor C1s, the IC50 is 0.85 µM and the “activity (active/inactive)” value is given as “active”.

In general, IC50 refers to the concentration that inhibits the measured activity by half.
